Format in all cases: cell-based
The target in test [1] is T1, human serotonin transporter (Homo sapiens, UniProt P31645).
T1 construct: expressed in transfected cells
Description: Inhibitory action on human serotonin transporter ([3H]-5-hydroxytryptamine uptake in CHO cells). To be noted: relative to inhibitory activity of 10 μM Paroxetine as 100%; for inhibition at 1 µM / inhibition at 10 µM: CHO, read-out: inhibitory rate (%). The source says:
(§1) Human serotonin transporter cDNA was amplified from human brain cDNA library by PCR, and inserted into pCRII-TOPO vector (manufactured by Invitrogen). The base sequence was confirmed and modified, and subcloned to pcDNA3.1 vector (manufactured by Invitrogen), whereby a human serotonin transporter expression plasmid was constructed. Human norepinephrine transporter cDNA was purchased from Invitrogen, and the base sequence was confirm and modified, and subcloned to pcDNA3.1 vector, whereby a human norepinephrine transporter expression plasmid was constructed.
(§2) The monoamine transporter expression plasmids thus prepared were introduced into CHO-K1 cells using FuGENE6 (manufactured by Roche Diagnostics) and according to the attached protocol, whereby each expressing cell was established.
CHO cells stably expressing a human serotonin transporter were used for the measurement of human serotonin transporter inhibitory activity. Unless particularly indicated, these CHO cells were cultured in a Ham/F12 medium (Invitrogen) containing 10% fetal bovine serum (MOREGATE).
The cultured cells that reached almost confluent were rinsed with PBS (Invitrogen), detached with Trypsin/EDTA (Invitrogen), and collected by a centrifugal operation. The obtained cells were counted, and diluted to 3×10^5 cells per 1 mL medium, the mixture was dispensed to a 96 well white plate (Corning) at 100 μL per well, and cultured overnight in a CO2 incubator.
(§3) Then, an assay buffer (126 mM NaCl, 4.95 mM KCl, 1.26 mM KH2PO4, 1.26 mM MgSO4, 10 mM HEPES, 2.32 mM CaCl2, 5.52 mM Glucose, 0.5% BSA) was prepared, the medium in the cell plate was removed and the assay buffer was added by 80 μL. A test compound was diluted with the assay buffer to a 10-fold concentration of the final concentration, and the mixture was dispensed to a 96 well polypropylene plate. The diluted test compound was dispensed to the cell plate by 10 μL. [3H]-5-Hydroxytryptamine (GE Healthcare) was diluted with the assay buffer to 200 nM, and the mixture was dispensed to the cell plate by 10 μL. At 20 min from [3H]-5-hydroxytryptamine addition, the assay buffer was removed by suction, and the plate was washed twice with 150 μL of PBS (Invitrogen) per well. Microscinti20 (PerkinElmer) was dispensed to each well by 100 μL, and the mixture was stirred for about 30 min. The radioactivity was measured by TopCount (PerkinElmer).
The inhibitory activity of each compound (10 μM) was calculated as a relative activity value based on the inhibitory activity of 10 μM Paroxetine (serotonin transporter inhibitor) as 100%.
In addition, the inhibitory activity of each compound (1 μM) was calculated as a relative activity value based on the inhibitory activity of 10 μM Paroxetine (serotonin transporter inhibitor) as 100%.

Test [2] addresses T2, human norepinephrine transporter (Homo sapiens, UniProt P23975).
T2 construct: expressed in transfected cells
Description: Inhibitory action on human norepinephrine transporter ([3H]-norepinephrine uptake in CHO cells). To be noted: relative to inhibitory activity of 10 μM DMI as 100%; for inhibition at 1 µM / inhibition at 10 µM: CHO, read-out: inhibitory rate (%).
Excerpt: as §1, §2
CHO cells stably expressing human norepinephrine transporter were used for the measurement of human norepinephrine transporter inhibitory activity. Unless otherwise indicated, these CHO cells were cultured in Ham/F12 medium (Invitrogen) containing 10% fetal bovine serum (MOREGATE).
The cultured cells that reached almost confluent were rinsed with PBS (Invitrogen), detached with Trypsin/EDTA (Invitrogen), and collected by a centrifugal operation. The obtained cells were counted, and diluted to 3×10^5 cells per 1 mL medium, and the mixture was dispensed to a 96 well white plate (Corning) at 100 μL per well, and cultured overnight in a CO2 incubator.
as §3, with “μL. [3H]-Norepinephrine” for “μL. [3H]-5-Hydroxytryptamine”, “At 45” for “At 20”, “from [3H]-norepinephrine” for “from [3H]-5-hydroxytryptamine”
The inhibitory activity of each compound (10 μM) was calculated as a relative activity value based on the inhibitory activity of 10 μM DMI (norepinephrine transporter inhibitor) as 100%.
The inhibitory activity of each compound (1 μM) was calculated as a relative activity value based on the inhibitory activity of 10 μM DMI (norepinephrine transporter inhibitor) as 100%.

Test [3] deals with T3, human dopamine transporter (Homo sapiens, UniProt Q01959).
T3 construct: expressed in transfected cells
Description: Inhibitory action on human dopamine transporter ([3H]-dopamine uptake in CHO cells). As to conditions: relative to inhibitory activity of 100 μM Nomifensine as 100%; for inhibition at 1 µM / inhibition at 10 µM: CHO, read-out: inhibitory rate (%).
Excerpt: SRα promoter contained in pTB1411 described in JP-A-H5-076385 was cleaved with restriction enzyme […](manufactured by TAKARA BIO INC.), blunt-ended, further cleaved with restriction enzyme EcoRI (manufactured by TAKARA BIO INC.), and fragmented. On the other hand, pCI vector was cleaved with restriction enzyme BglII (manufactured by TAKARA BIO INC.), blunt-ended with T4 DNA polymerase, and further cleaved with restriction enzyme EcoRI (manufactured by TAKARA BIO INC.). Into this site was inserted an SRa promoter fragment to give pCI-SRa. Then, pCI-SRa was cleaved with restriction enzyme ClaI (manufactured by TAKARA BIO INC.) and blunt-ended. Into this site was inserted a 1.63 Kb fragment obtained by cleaving pGFP-C1 (manufactured by TOYOBO) with restriction enzyme Bsu36I (manufactured by Daiichi Pure Chemicals Co., Ltd.) followed by blunt-ending, whereby pMSRα neo was prepared. Human dopamine transporter cDNA was amplified from human substantia nigra cDNA library by PCR, and inserted into the pCRII vector (manufactured by Invitrogen). The base sequence was confirmed, modified and subcloned to pMSRα neo, whereby a human dopamine transporter expression plasmid was constructed.
as §2
CHO cells stably expressing human dopamine transporter were used for the measurement of human dopamine transporter inhibitory activity. Unless otherwise indicated, these CHO cells were cultured in Ham/F12 medium (Invitrogen) containing 10% fetal bovine serum (MOREGATE).
One day before the assay, the cultured cells that reached almost confluent were rinsed with PBS (Invitrogen), detached with Trypsin/EDTA (Invitrogen), and collected by a centrifugal operation. The obtained cells were counted, and diluted to 3×10^5 cells per 1 mL medium, and the mixture was dispensed to a 96 well white plate (Corning) at 100 μL per well, and cultured overnight in a CO2 incubator.
as §3, with “On the day of the test, an” for “Then, an”, “μL. [3H]-Dopamine” for “μL. [3H]-5-Hydroxytryptamine”, “nM, cold dopamine was diluted to 10 μM,” for “nM,”, “At 60” for “At 20”, “from [3H]-dopamine” for “from [3H]-5-hydroxytryptamine”
The inhibitory activity of each compound (10 μM) was calculated as a relative activity value based on the inhibitory activity of 100 μM Nomifensine (dopamine transporter inhibitor) as 100%.
The inhibitory activity of each compound (1 μM) was m calculated as a relative activity value based on the inhibitory activity of 100 μM Nomifensine (dopamine transporter inhibitor) as 100%.

Setting [4] is: compound 10 μM, CHO cells expressing human serotonin transporter.

Structures can show the parent of a compound that is named as a salt.

T3 sequence (Q01959 whole entry): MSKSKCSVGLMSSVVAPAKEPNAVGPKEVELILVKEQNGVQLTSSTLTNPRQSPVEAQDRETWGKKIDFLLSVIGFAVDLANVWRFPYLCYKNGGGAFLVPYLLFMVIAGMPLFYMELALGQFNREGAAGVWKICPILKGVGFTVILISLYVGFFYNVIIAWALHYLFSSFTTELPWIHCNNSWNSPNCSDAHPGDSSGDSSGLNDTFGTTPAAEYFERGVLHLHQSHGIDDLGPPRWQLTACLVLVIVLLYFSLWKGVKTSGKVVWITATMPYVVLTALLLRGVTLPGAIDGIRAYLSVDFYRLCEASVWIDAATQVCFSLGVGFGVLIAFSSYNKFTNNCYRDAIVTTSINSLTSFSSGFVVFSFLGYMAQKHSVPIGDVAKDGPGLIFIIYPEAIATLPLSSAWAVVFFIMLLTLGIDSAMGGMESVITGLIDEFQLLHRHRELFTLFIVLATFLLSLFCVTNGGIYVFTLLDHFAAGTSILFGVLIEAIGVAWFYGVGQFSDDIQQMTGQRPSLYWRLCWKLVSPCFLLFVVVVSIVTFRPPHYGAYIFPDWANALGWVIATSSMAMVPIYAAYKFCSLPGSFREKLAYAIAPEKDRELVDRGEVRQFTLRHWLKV
T2 sequence (P23975 whole entry): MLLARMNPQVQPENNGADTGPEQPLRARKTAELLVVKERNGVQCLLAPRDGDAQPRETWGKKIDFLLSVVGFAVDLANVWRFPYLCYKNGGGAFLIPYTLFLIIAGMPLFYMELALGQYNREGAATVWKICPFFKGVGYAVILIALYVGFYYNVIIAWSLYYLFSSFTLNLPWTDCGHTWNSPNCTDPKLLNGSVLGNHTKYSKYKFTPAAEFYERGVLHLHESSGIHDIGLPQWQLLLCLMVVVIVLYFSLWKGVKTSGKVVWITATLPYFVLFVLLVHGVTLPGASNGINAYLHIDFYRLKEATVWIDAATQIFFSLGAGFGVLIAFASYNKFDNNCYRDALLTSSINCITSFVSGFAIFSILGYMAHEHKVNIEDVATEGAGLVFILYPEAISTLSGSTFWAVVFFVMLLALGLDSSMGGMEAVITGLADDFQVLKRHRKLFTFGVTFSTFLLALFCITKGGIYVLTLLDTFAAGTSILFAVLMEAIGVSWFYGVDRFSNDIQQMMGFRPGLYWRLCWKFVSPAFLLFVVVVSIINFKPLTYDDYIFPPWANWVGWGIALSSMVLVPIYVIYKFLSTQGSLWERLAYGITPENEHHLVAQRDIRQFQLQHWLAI
T1 sequence (P31645 whole entry): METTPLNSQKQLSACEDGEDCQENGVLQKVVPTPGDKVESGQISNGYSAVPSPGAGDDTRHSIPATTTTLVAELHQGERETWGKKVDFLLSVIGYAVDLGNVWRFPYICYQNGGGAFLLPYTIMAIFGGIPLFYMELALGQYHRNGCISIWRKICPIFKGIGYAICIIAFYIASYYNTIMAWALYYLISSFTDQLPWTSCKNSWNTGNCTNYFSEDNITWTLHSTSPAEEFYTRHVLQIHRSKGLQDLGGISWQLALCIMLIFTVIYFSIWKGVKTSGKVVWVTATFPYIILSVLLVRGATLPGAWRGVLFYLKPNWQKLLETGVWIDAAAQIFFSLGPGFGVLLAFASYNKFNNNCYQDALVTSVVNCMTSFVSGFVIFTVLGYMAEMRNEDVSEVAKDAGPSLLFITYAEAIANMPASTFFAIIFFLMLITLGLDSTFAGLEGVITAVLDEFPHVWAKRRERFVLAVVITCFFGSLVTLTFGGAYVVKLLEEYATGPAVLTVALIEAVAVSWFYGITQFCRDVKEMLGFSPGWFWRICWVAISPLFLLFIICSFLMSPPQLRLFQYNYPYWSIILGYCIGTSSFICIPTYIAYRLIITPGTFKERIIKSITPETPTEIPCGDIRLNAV

With `CS(=O)(=O)C[C@H]1CNCCOC1c1ccc(F)c(Cl)c1` (mixture of isomers) [Example 12, (6RS,7SR)-7-(3-chloro-4-fluorophenyl)-6-[(methylsulfonyl)methyl]-1,4-oxazepane monohydrochloride], the inhibition at 1 µM in test [1] (compound 1 μM) stood at 87%; in test [2] (compound 1 μM), 97%; in test [3] (compound 1 μM), 39%. Also, the figures for the inhibition at 10 µM in test [1] (setting [4]), in test [2] (compound 10 μM) and in test [3] (compound 10 μM) were 97%, 100% and 90%, respectively.

`OC[C@H]1NCCOC[C@@H]1c1ccc(Cl)c(Cl)c1` (racemic) [Example 14, [(5RS,6SR)-6-(3,4-dichlorophenyl)-1,4-oxazepan-5-yl]methanol monohydrochloride]: the “inhibitory rate (%)” value is given as 31% in test [1] (compound 1 μM); 79% in test [1] (setting [4]); 98% in test [2] (compound 1 μM); 100% in test [2] (compound 10 μM); 87% in test [3] (compound 1 μM); 99% in test [3] (compound 10 μM).

Take `COC1(c2ccc(Cl)c(Cl)c2)CNCCOC1` (racemic) [Example 17, (6RS)-6-(3,4-dichlorophenyl)-6-methoxy-1,4-oxazepane monohydrochloride]: the values for the inhibition at 1 µM in test [1] (compound 1 μM), in test [2] (compound 1 μM) and in test [3] (compound 1 μM) were 70%, 75% and 19%, respectively. The figures for the inhibition at 10 µM in test [1] (setting [4]), in test [2] (compound 10 μM) and in test [3] (compound 10 μM) were 96%, 97% and 53%, respectively.

Consider `NS(=O)(=O)NCC1(c2ccc(Cl)c(Cl)c2)CCNCCO1` (racemic) [Example 22, N-{[(7RS)-7-(3,4-dichlorophenyl)-1,4-oxazepan-7-yl]methyl}sulfamide monohydrochloride], for which the inhibition at 1 µM was found to be 82% in test [1] (compound 1 μM), 97% in test [2] (compound 1 μM) and 25% in test [3] (compound 1 μM). Moreover, the inhibition at 10 µM in test [1] (setting [4]) came to 98%; in test [2] (compound 10 μM), 99%; in test [3] (compound 10 μM) it was 63%.

Regarding `CS(=O)(=O)NCC1(c2ccc(Cl)c(Cl)c2)CNCCCO1` (racemic) [Example 24, N-{[(2RS)-2-(3,4-dichlorophenyl)-1,4-oxazepan-2-yl]methyl}methanesulfonamide monohydrochloride], the inhibition at 1 µM stood at 87% in test [1] (compound 1 μM), 94% in test [2] (compound 1 μM) and 20% in test [3] (compound 1 μM). The inhibition at 10 µM amounted to 99% in test [1] (setting [4]), 99% in test [2] (compound 10 μM) and 50% in test [3] (compound 10 μM).

With `OC[C@H]1OCCNC[C@H]1c1ccc(Cl)c(Cl)c1` (racemic) [Example 25, [(6RS,7SR)-6-(3,4-dichlorophenyl)-1,4-oxazepan-7-yl]methanol monohydrochloride], the inhibition at 1 µM was 29% in test [1] (compound 1 μM), 99% in test [2] (compound 1 μM) and 46% in test [3] (compound 1 μM). In addition, the inhibition at 10 µM came out at 65% in test [1] (setting [4]), 100% in test [2] (compound 10 μM) and 94% in test [3] (compound 10 μM).

As for `CS(=O)(=O)C[C@@H]1CNCCO[C@@H]1c1ccc(Cl)c(Cl)c1` (racemic) [Example 50, (6RS,7SR)-7-(3,4-dichlorophenyl)-6-[(methylsulfonyl)methyl]-1,4-oxazepane monohydrochloride], the values for the inhibition at 1 µM in test [1] (compound 1 μM), in test [2] (compound 1 μM) and in test [3] (compound 1 μM) were 100%, 98% and 64%, respectively.

With `CCNC(=O)NC[C@@H]1CNCCO[C@@H]1c1ccc(Cl)c(Cl)c1` (racemic) [Example 52, 1-{[(6RS,7RS)-7-(3,4-dichlorophenyl)-1,4-oxazepan-6-yl]methyl}-3-ethylurea monohydrochloride], the inhibition at 1 µM in test [1] (compound 1 μM) is 99%; in test [2] (compound 1 μM) it was 97%; in test [3] (compound 1 μM), 29%.

The values above are taken from US20130267494A1, “1,4-OXAZEPANE DERIVATIVES” (priority 2010, published 2013).
